Earlier results as cited in patent publication US20070190114A1, “Antioxidant health lozenges” (priority 2006, published 2007).

Experiments:
[1] = daily dose of 600 mg
[2] = tested on: peripheral lymphocytes; settings: peripheral lymphocytes in smokers
[3] = tested on: alveolar macrophages; settings: alveolar macrophages in smokers

Structure (SMILES): CC(=O)N[C@@H](CS)C(=O)O [N-acetyl cysteine]
- cancer chemopreventive effect [1]: effective cancer chemopreventive agent

Structure (SMILES): O=C(O[C@@H]1Cc2c(O)cc(O)cc2O[C@@H]1c1cc(O)c(O)c(O)c1)c1cc(O)c(O)c(O)c1 [epigallocatechin gallate]
- sister-chromatid exchange [2]: stabilize sister-chromatid exchange in peripheral lymphocytes in smokers to a level comparable to non-smokers

Structure (SMILES): Oc1ccc(C=Cc2cc(O)cc(O)c2)cc1 [resveratrol]
- basal release of inflammatory cytokine [3]: inhibits basal release of inflammatory cytokine from alveolar macrophages in smokers
